Source: article PMC4780864, “Family-wide Structural Analysis of Human Numb-Associated Protein Kinases” (Structure(London, England:1993), 2016)

Key:
Assay in all cases: biochemical
AAK1 = AAK1 (Homo sapiens, UniProt Q2M2I8); design: kinase domain; Thermal shift assay (DSF, SYPRO Orange), 2 uM kinase domain, mean delta Tm of triplicates versus DMSO; conditions: read-out: AAK1
Experimental: (§1) All measurements were performed in triplicate and mean values were reported for all compounds (Table S1). […] However, NAKs are often omitted from selectivity panels, including commercial screens.

GAK = target: T1, GAK (Homo sapiens, UniProt O14976); design: Thermal shift assay (DSF, SYPRO Orange), 2 uM kinase domain, mean delta Tm of triplicates versus DMSO; conditions: read-out: GAK
T1 construct: catalytic domain-containing construct
T1 sequence (O14976 1-1311): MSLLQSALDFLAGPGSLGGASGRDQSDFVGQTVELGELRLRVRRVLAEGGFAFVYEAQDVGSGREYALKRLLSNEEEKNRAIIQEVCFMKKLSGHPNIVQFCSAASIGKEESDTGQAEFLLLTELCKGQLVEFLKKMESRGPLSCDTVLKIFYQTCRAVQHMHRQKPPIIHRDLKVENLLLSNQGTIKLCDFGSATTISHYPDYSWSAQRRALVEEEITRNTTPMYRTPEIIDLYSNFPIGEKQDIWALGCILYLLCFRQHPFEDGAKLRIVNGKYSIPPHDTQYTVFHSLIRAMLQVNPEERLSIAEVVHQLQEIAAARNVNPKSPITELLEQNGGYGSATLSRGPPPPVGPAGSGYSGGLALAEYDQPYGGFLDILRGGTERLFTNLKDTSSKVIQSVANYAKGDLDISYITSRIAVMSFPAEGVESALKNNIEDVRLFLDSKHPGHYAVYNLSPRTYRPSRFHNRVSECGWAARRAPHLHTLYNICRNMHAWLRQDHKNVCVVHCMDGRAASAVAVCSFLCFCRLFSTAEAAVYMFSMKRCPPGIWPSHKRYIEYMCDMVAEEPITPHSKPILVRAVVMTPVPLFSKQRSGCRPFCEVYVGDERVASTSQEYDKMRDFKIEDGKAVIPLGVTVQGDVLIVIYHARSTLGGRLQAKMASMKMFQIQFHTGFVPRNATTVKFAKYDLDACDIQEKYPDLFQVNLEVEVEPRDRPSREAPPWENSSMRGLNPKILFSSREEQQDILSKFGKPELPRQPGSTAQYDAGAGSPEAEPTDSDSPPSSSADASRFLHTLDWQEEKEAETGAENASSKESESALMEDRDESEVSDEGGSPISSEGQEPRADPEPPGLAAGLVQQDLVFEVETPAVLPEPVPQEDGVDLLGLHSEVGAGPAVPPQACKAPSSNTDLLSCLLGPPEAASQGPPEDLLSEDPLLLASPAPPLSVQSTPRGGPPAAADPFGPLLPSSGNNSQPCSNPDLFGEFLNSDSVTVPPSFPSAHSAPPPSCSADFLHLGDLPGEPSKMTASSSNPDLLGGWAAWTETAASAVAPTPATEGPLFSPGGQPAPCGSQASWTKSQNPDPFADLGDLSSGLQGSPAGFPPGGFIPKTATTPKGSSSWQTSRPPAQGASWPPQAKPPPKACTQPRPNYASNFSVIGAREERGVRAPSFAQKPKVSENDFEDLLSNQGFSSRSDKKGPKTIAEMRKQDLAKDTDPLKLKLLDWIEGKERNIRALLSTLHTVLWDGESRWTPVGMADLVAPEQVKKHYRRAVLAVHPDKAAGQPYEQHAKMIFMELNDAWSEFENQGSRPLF
Experimental: as §1

MPSK1 = target: T2, MPSK1 (Homo sapiens, UniProt O75716); design: Thermal shift assay (DSF, SYPRO Orange), 2 uM kinase domain, mean delta Tm of triplicates versus DMSO; conditions: read-out: MPSK1
T2 construct: gene STK16; catalytic domain-containing construct
T2 sequence (O75716 whole entry, the tested form may be a part): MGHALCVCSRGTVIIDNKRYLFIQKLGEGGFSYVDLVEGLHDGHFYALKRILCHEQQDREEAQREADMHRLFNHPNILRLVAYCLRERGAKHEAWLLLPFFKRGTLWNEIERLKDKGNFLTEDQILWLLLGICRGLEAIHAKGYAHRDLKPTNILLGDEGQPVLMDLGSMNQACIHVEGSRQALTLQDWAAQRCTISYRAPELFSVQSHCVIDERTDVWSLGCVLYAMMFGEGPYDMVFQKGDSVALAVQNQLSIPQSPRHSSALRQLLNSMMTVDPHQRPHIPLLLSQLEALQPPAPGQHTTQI
Experimental: as §1

BIKE = target: T3, BIKE (Homo sapiens, UniProt Q9NSY1); design: Thermal shift assay (DSF, SYPRO Orange), 2 uM kinase domain, mean delta Tm of triplicates versus DMSO; conditions: read-out: BIKE
T3 construct: gene BMP2K; catalytic domain-containing construct
T3 sequence (Q9NSY1 whole entry, the tested form may be a part): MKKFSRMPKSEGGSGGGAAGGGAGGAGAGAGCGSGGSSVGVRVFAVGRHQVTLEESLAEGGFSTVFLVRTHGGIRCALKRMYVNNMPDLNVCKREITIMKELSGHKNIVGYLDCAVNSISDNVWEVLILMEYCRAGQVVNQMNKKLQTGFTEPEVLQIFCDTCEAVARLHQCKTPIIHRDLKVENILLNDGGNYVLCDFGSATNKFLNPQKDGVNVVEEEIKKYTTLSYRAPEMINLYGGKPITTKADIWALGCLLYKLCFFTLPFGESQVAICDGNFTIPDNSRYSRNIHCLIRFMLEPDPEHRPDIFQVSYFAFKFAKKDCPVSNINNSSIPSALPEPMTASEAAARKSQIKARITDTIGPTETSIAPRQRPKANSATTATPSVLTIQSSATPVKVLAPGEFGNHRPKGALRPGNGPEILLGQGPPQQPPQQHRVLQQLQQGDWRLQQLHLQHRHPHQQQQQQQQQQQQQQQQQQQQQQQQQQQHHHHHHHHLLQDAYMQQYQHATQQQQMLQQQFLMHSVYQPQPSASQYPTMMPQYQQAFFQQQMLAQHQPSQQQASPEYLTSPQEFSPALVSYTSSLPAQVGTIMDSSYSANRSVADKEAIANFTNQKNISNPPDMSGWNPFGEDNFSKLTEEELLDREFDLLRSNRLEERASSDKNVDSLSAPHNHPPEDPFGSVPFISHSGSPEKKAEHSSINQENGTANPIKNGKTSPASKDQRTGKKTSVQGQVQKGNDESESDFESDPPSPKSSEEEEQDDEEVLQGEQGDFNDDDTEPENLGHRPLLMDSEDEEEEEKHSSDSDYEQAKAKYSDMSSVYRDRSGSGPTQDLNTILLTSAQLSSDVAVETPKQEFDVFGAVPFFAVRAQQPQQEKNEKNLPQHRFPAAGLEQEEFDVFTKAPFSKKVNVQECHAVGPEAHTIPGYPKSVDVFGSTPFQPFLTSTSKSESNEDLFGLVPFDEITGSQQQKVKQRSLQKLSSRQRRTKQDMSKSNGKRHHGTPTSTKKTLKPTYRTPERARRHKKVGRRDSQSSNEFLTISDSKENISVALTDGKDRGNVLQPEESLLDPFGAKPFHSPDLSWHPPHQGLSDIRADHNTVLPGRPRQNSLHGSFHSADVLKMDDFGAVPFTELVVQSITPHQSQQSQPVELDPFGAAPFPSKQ
Experimental: as §1

Sequence of AAK1 (Q2M2I8 27-365 limits assumed): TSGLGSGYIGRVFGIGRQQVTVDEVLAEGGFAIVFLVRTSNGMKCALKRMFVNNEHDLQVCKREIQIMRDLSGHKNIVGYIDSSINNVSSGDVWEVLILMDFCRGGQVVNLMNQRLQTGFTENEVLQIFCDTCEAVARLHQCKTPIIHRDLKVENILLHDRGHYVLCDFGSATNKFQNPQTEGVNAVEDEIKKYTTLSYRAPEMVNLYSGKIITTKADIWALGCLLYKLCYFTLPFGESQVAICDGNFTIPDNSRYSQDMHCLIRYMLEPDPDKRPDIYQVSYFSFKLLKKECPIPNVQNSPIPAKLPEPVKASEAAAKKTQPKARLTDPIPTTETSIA

| Structure (SMILES) | ΔTm at 12.5 µM (AAK1) [°C] | ΔTm at 12.5 µM (GAK) [°C] | ΔTm at 12.5 µM (MPSK1) [°C] | ΔTm at 12.5 µM (BIKE) [°C] |
| --- | --- | --- | --- | --- |
| COc1cc(O)c2c(c1)/C=C/C[C@H](O)[C@H](O)C(=O)/C=C\C[C@H](C)OC2=O [(5Z)-7-oxozeaenol, (3S,5Z,8S,9S,11E)-3,4,9,10-tetrahydro-8,9,16-trihydroxy-14-methoxy-3-methyl-1H-2-benzoxacyclotetradecin-1,7(8H)-dione] | 11.4 | 16.7 | 1.09 | 14 |
| COc1cc(N2CCC(N3CCN(C)CC3)CC2)ccc1Nc1ncc(Cl)c(Nc2ccccc2P(C)(C)=O)n1 [AP26113] | 7.77 | 9.03 | 2.75 | 8.42 |
| COc1cc(N2CCC(N3CCN(C)CC3)CC2)ccc1Nc1ncnc(Nc2ccccc2S(=O)(=O)C(C)C)n1 [ASP3026] | 4.23 | 3.17 | 1.08 | 2.92 |
| O=C(Nc1c[nH]nc1-c1nc2ccc(CN3CCOCC3)cc2[nH]1)NC1CC1 [AT9283] | 12.1 | 4.52 | 9.49 | 15.6 |
| CC(C)Oc1cc(Nc2nc(N[C@@H](C)c3ccc(F)cn3)ncc2Cl)n[nH]1 [AZ23] | 1.65 | 3.09 | 3.4 | 3.37 |
| COc1cc(OC2CCN(C)CC2)ccc1Nc1ncc2c(n1)n(C1CCCC1)c(=O)n2C [AZ3146] | 5.37 | 6.52 | 4.12 | 6.16 |
| CCN(CCO)CCCOc1ccc2c(Nc3cc(CC(=O)Nc4cccc(F)c4)[nH]n3)ncnc2c1 [AZD1152-HQPA] |  | -0.54 | 0.953 | 2.02 |
| Cc1cc(Nc2nc(N[C@@H](C)c3ncc(F)cn3)ncc2Cl)[nH]n1 [AZD1480] | 4.44 | 0.667 | 5.04 | 6.41 |
| CNC(=O)c1cccc(-c2ccc3c(N4CCOC[C@@H]4C)nc(N4CCOC[C@@H]4C)nc3n2)c1 [AZD2014] | 0.373 | -0.433 | 1.12 | 0.477 |
| COc1cc(CCc2cc(NC(=O)c3ccc(N4C[C@@H](C)N[C@@H](C)C4)cc3)n[nH]2)cc(OC)c1 [AZD4547] | 3.26 | -0.197 | 6.5 | 5.45 |
| COc1ccc(-c2ccc3c(N4CCOC[C@@H]4C)nc(N4CCOC[C@@H]4C)nc3n2)cc1CO [AZD8055] | 0.04 | -0.753 | 0.947 | 0.12 |
| Cc1cc(C(=O)NOCCO)c(Nc2ccc(I)cc2F)n(C)c1=O [AZD8330] | 0.187 | -0.347 | 0.463 | 0.227 |
| CN(C)C/C=C/C(=O)Nc1cc2c(Nc3ccc(F)c(Cl)c3)ncnc2cc1O[C@H]1CCOC1 [Afatinib] | 1.31 | 3.38 | 0.897 | 1.95 |
| CCc1cc2c(cc1N1CCC(N3CCOCC3)CC1)C(C)(C)c1[nH]c3cc(C#N)ccc3c1C2=O [Alectinib] | 0.613 | 6.7 | 1.29 | 0.673 |
| COc1cc(Nc2ncc3c(n2)-c2ccc(Cl)cc2C(c2c(F)cccc2OC)=NC3)ccc1C(=O)O [Alisertib] | 0.29 | -0.237 | 2.32 | 0.78 |
| CN1CC[C@H](c2c(O)cc(O)c3c(=O)cc(-c4ccccc4Cl)oc23)[C@H](O)C1 [Alvocidib] | 1.86 | 1.31 | 1.55 | 1.46 |
| S=C(NCc1ccc2c(c1)OCO2)N1CCN(c2ncnc3c2oc2ccccc23)CC1 [Amuvatinib] | 1.93 | 0.377 | 0.233 | 1.16 |

| Structure (SMILES) | ΔTm at 12.5 µM (AAK1) [°C] | ΔTm at 12.5 µM (GAK) [°C] | ΔTm at 12.5 µM (MPSK1) [°C] | ΔTm at 12.5 µM (BIKE) [°C] |
| --- | --- | --- | --- | --- |
| N#CC1(c2ccc(NC(=O)c3cccnc3NCc3ccncc3)cc2)CCCC1 [Apatinib] | 0.223 | -0.113 | 0.55 | 0.843 |
| Cc1c(CN2CCN(C(=O)[C@H](C)O)CC2)sc2c(N3CCOCC3)nc(-c3cnc(N)nc3)nc12 [Apitolisib] | 1.4 | 0.847 | 3.51 | 1.55 |
| CNC(=O)c1ccccc1Sc1ccc2c(/C=C/c3ccccn3)n[nH]c2c1 [Axitinib] | 6.85 | 0.75 | 3.09 | 12.4 |
| CC[C@@H]1C(=O)N(C)c2cnc(Nc3ccc(C(=O)NC4CCN(C)CC4)cc3OC)nc2N1C1CCCC1 [BI 2536] |  | 4.13 |  |  |
| Cc1c(NC(=O)OC[C@@H]2COCCN2)cn2ncnc(Nc3ccc4c(cnn4Cc4cccc(F)c4)c3)c12 [BMS-599626] | 2.62 | 2.18 | 0.293 | 4.37 |
| C[C@@]1(C(=O)Nc2ccc(F)nc2)CCCN1c1nc(Nc2cc(C3CC3)n[nH]2)c2cccn2n1 [BMS-754807] | 0.483 | -0.337 | 5.21 | 2.91 |
| CCn1c(C(=O)N(C2CC2)C2CC2)cc2c3c(ncn3C)c(Nc3cc(C)n(C)n3)nc21 [BMS-911543] | 1.25 | 1.58 | 0.99 | 4.41 |
| O=C(Nc1cccc(Nc2ncc(Br)c(NCCc3cnc[nH]3)n2)c1)N1CCCC1 [BX-912] | 9.95 | 4.05 | 8.25 | 15.9 |
| Cc1nc(NC(=O)N2CCC[C@H]2C(N)=O)sc1-c1ccnc(C(C)(C)C(F)(F)F)c1 [BYL719] | 4.38 | 2.41 | 0.743 | 3.88 |
| Cc1ccc(NC(=O)c2ccc(CN3CC[C@H](N(C)C)C3)c(C(F)(F)F)c2)cc1Nc1nccc(-c2cncnc2)n1 [Bafetinib] | 1.07 | 4.57 | 2.51 | 1.1 |
| COc1cc(Nc2c(C#N)cnc3cc(OCCCN4CCN(C)CC4)c(OC)cc23)c(Cl)cc1Cl [Bosutinib] | 3.03 | 9.42 | 1.25 | 5.88 |
| Cc1cc2c(F)c(Oc3ncnn4cc(OC[C@@H](C)O)c(C)c34)ccc2[nH]1 [Brivanib] | 1.34 | 0.347 | 0.977 | 0.81 |
| Nc1cc(C(F)(F)F)c(-c2cc(N3CCOCC3)nc(N3CCOCC3)n2)cn1 [Buparlisib] | 0.317 | -0.927 | 1.75 | 0.573 |
| C#Cc1cccc(Nc2ncnc3cc(OC)c(OCCCCCCC(=O)NO)cc23)c1 [CUDC-101] | 0.713 | 2.77 | 0.407 | 0.917 |
| COc1cc2nccc(Oc3ccc(NC(=O)C4(C(=O)Nc5ccc(F)cc5)CC4)cc3)c2cc1OC [Cabozantinib] | 0.82 | 2.46 | 0.713 | 0.743 |
| CS(=O)(=O)N1CCN(Cc2cc3nc(-c4cccc5[nH]ncc45)nc(N4CCOCC4)c3s2)CC1 [Pictilisib] | 2.3 |  | 5.92 | 4.67 |
